The text below walks through data of paper PMC4996684 (Bioorganic & medicinal chemistry letters, 2016).

Like-named read-outs stand apart in the source and are kept apart here.

The experiment addresses T1, human M5 mAChR (Homo sapiens, UniProt P08912).
T1 sequence (P08912 1-532): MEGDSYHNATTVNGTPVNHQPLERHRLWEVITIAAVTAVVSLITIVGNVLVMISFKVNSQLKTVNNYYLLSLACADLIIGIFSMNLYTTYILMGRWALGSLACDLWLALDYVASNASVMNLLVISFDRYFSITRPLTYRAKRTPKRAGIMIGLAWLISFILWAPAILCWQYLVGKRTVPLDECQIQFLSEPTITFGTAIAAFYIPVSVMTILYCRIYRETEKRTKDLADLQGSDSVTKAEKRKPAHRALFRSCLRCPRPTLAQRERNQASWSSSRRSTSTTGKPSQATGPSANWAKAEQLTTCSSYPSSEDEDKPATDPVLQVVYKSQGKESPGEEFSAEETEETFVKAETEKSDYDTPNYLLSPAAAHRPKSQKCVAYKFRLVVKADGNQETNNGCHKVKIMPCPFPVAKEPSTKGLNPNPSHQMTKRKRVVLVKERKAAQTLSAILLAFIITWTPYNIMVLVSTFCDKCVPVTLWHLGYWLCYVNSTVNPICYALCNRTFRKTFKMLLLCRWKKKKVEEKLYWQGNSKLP
Nature of the experiment: hM5 functional inhibition assay. The format is cell-based. To be noted: for hM5 Percent inhibition (Table 3): single point at 10 μM, EC80 of ACh, average of three determinations.

As for `Cc1nn(C)c(C)c1S(=O)(=O)N1CCC2(CC1)OCCS2` [Compound 4, 8-((1,3,5-trimethyl-1H-pyrazol-4-yl)sulfonyl)-1-oxa-4-thia-8-azaspiro[4,5]decane], the inhibition – broadly, the share of the control response that was lost under treatment – at 10 µM amounted to 84% (read-out: hM5 Percent inhibition (Table 2)); 88% (read-out: hM5 Percent inhibition (Table 3)); 50% (read-out: maximum M5 inhibition, single point M5 inhibition assay). Besides, for the setting “resynthesized 4, 10 μM”, the “activity in the 10 μM single point assay” value is 88%.
`Cc1nn(C)cc1S(=O)(=O)N1CCC2(CC1)OCCS2` [Compound 9b]: the “hM5 Percent inhibition (Table 3)” value is “Inactive”.
The same measure, in the same setting: next, `Cn1cnc(S(=O)(=O)N2CCC3(CC2)OCCS3)c1` [Compound 9h]: “Inactive”.
